From patent EP4741383A1, “COMPOUND AND USE THEREOF AS ANTI-CANCER DRUG” (Tyligand Bioscience (Shanghai) Limited, priority 2023, dated 2025)

Test system: MV4-11
Assay: CellTiter-Glo cell proliferation inhibition, MV4-11
Type: cell-based, human
Settings: Homo sapiens; MV4-11 cells, 72 hours, CellTiter-Glo; read-out: IC50 (µM) M V4-11
From the text: (§1) In this study, the CellTiter-Glo® Luminescent Cell Viability Assay kit from Promega was used to evaluate the inhibitory effects of the disclosed compounds on the proliferation of cell lines KYSE520 (a human esophageal squamous cell carcinoma cell line dependent on SHP2 for growth), MeWo (a human malignant melanoma cell line), and MV4-11 (an RTK-mutant human acute monocytic leukemia cell line).
Using essentially the same experimental materials, MV4-11 cells (Nanjing Cobio Biotechnology Co., Ltd., Catalog #CBP60522) were treated similarly: when thawing the cells, the cryovial was rapidly shaken in a 37 °C water bath to thaw within 1 minute. The thawed cell suspension was mixed with IMDM culture medium containing 10% FBS (HyClone, Catalog #SH30228.01), centrifuged at 1000 rpm for 7 minutes, and the supernatant was discarded. The cell pellet was resuspended in 5 mL of complete culture medium (IMDM medium containing 10% FBS) placed in a cell culture flask with 25 cm^2 of bottom area, and cultured in a cell culture incubator at 37 °C, 95% humidity, and 5% CO2. Cell passaging was performed when the cell density reached approximately 10^6 cells/mL. During cell passaging, the old cell suspension was thoroughly mixed, 1/5 of the cell suspension was retained, and 4 mL of new complete culture medium was added. After thorough mixing, the cells were placed back in the cell culture incubator for further culture. Cell plating was performed when the cell density again reached approximately 10^6 cells/mL. During cell plating, following the cell passage method, 1/5 of the cell suspension was retained for continued culture, and the remaining 4/5 of the cell suspension was placed in a 15 mL centrifuge tube. Cell viability was determined using the trypan blue exclusion method to ensure that cell viability was above 90%. A cell suspension with a density of 1.11 × 10^5 viable cells/mL was prepared using complete culture medium. 90 µL of the cell suspension was added to a 96-well cell culture plate, resulting in a cell density of 10000 viable cells/well. A control group without cells and without compounds, containing only complete culture medium (i.e., culture medium control) and a control group without compounds but containing cells (i.e., cell control) were set up. The cell plate was incubated overnight in the cell culture incubator. First, a 10 mM stock solution of the compound (Example compound and positive control compound 11a-1) in DMSO was serially diluted with DMSO at a 3-fold dilution, down to the 9th concentrations. A 10th concentration containing only DMSO (without the compound) was also prepared as a control. Then, the DMSO solutions containing different concentrations of the compound were diluted 100-fold with complete culture medium, resulting in a DMSO concentration of 1% in each solution. Finally, 10 µL of each solution was added to the corresponding wells of a cell culture plate, resulting in an initial compound concentration of 10 µM, with a 3-fold dilution between adjacent concentrations, and a DMSO concentration of 0.1% in the cell culture plate. The cell plate was then incubated in a cell culture incubator for 72 hours.
(§2) For endpoint detection, CellTiter-Glo reagent (Promega, catalog number #G7573, CellTiter-Glo® Luminescent Cell Viability Assay Kit) was melt and each cell plate was moved to room temperature for equilibration for 30 minutes. 75 µL (KYSE520 cells) or 50 µL (MeWo cells and MV 4-11 cells) of CellTiter-Glo was added to each well of the corresponding cell plate. The plates were shaken on a track-mounted shaker for 2 minutes to fully lyse the cells. The cell plates were kept at room temperature for 8 minutes to stabilize the luminescence signal. A multi-mode microplate reader (PerkinEImer, Envision 2105 Multimode plate Read) was used to full-wavelength scan the luminescence value of each well. […]

Row | Compound | IC50 [µM]
1 | CC(O)C1CCN(c2ccc(NC(=O)C(=O)Nc3ccc(-c4cc5cc(F)c(-c6nnn[nH]6)cc5n4C4CCC4)cc3)cc2)CC1 (stereo not shown) [Example 29] | 0.13
2 | CC(C)(O)C1CCN(c2ccc(NC(=O)C(=O)Nc3ccc(-c4cc5cc(F)c(-c6nnn[nH]6)cc5n4C4CCC4)cc3)cc2)CC1 [Example 33] | > 10
3 | CC1(n2c(-c3ccc(NC(=O)C(=O)Nc4ccc(N5CCC6(CCOC6)CC5)cc4)cc3)cc3cc(F)c(-c4nnn[nH]4)cc32)CC1 [Example 70] | 4.25
4 | O=C(Nc1ccc(-c2cc3cc(F)c(-c4nnn[nH]4)cc3n2C2CCC2)cc1)C(=O)Nc1ccc(N2CCC3(CCOC3)CC2)cc1 [Example 67] | > 10
5 | CC1(n2c(-c3ccc(NC(=O)C(=O)Nc4ccc(-c5cnn(C6CCOCC6)c5)cc4)cc3)cc3cc(F)c(-c4nnn[nH]4)cc32)CC1 [Example 7] | 0.254
6 | O=C(Nc1ccc(-c2cc3cc(F)c(-c4nnn[nH]4)cc3n2C2CCC2)cc1)C(=O)Nc1ccc(N2CC3CC(O)CC3C2)cc1 (stereo not shown) [Example 116] | 0.263
7 | COC1CC(n2c(-c3ccc(NC(=O)C(=O)Nc4ccc(N5CCC6(CCC(O)C6)CC5)cc4)cc3)cc3cc(F)c(-c4nnn[nH]4)cc32)C1 (stereo not shown) [Example 103] | 0.124
8 | CC1(n2c(-c3ccc(NC(=O)C(=O)Nc4ccc(N5CCC6(CCC(O)CC6)CC5)cc4)cc3)cc3cc(F)c(-c4nnn[nH]4)cc32)CCC1 [Example 109] | 0.243
9 | O=C(Nc1ccc(-c2cc3cc(F)c(-c4nnn[nH]4)cc3n2C2CCC2)cc1)C(=O)Nc1ccc(N2CCC3(COC3)C2)cc1 [Example 59] | 0.213
10 | CC1(CO)CCN(c2ccc(NC(=O)C(=O)Nc3ccc(-c4cc5cc(F)c(-c6nnn[nH]6)cc5n4C4CCC4)cc3)cc2)C1 (stereo not shown) [Example 16] | 0.137
11 | CC1(O)CC2CN(c3ccc(NC(=O)C(=O)Nc4ccc(-c5cc6cc(F)c(-c7nnn[nH]7)cc6n5C5CCC5)cc4)cc3)CC2C1 (stereo not shown) [Example 117] | 0.127
12 | O=C(Nc1ccc(-c2cc3cc(F)c(-c4nnn[nH]4)cc3n2C2CCC2)cc1)C(=O)Nc1ccc(N2CCC3(CCCOC3)CC2)cc1 [Example 74] | 0.129
13 | N#CCc1cc(-c2ccc(NC(=O)C(=O)Nc3ccc(-c4cc5cc(F)c(-c6nnn[nH]6)cc5n4C4CCC4)cc3)cc2)cs1 [Example 2] | 0.216
14 | CC1(n2c(-c3ccc(NC(=O)C(=O)Nc4ccc(N5CCC6(CCC(O)C6)CC5)cc4)cc3)cc3cc(F)c(-c4nnn[nH]4)cc32)CCC1 (stereo not shown) [Example 101] | 0.329
15 | O=C(Nc1ccc(-c2cc3cc(F)c(-c4nnn[nH]4)cc3n2C2CCC2)cc1)C(=O)Nc1ccc(N2CCC(CCO)C2)cc1 (stereo not shown) [Example 14] | 0.155
16 | CC1(n2c(-c3ccc(NC(=O)C(=O)Nc4ccc(N5CCC(CCO)CC5)cc4)cc3)cc3cc(F)c(-c4nnn[nH]4)cc32)CCC1 [Example 26] | 0.129
17 | O=C(Nc1ccc(-c2cc3cc(F)c(-c4nnn[nH]4)cc3n2C2CCC2)cc1)C(=O)Nc1ccc(N2CCC3(CCCOC3)C2)cc1 (stereo not shown) [Example 62] | 0.202
18 | CC1(O)CC2CN(c3ccc(NC(=O)C(=O)Nc4ccc(-c5cc6cc(F)c(-c7nnn[nH]7)cc6n5C5(C)CCC5)cc4)cc3)CC2C1 (stereo not shown) [Example 118] | 0.131
19 | CC1(O)CC2(CCN(c3ccc(NC(=O)C(=O)Nc4ccc(-c5cc6cc(F)c(-c7nnn[nH]7)cc6n5C5(C)CCC5)cc4)cc3)CC2)C1 [Example 95] | 0.168
20 | CC1(O)CCC2(CC1)CN(c1ccc(NC(=O)C(=O)Nc3ccc(-c4cc5cc(F)c(-c6nnn[nH]6)cc5n4C4CCC4)cc3)cc1)C2 [Example 83] | 0.133
21 | O=C(Nc1ccc(-c2cc3cc(F)c(-c4nnn[nH]4)cc3n2C2CCC2)cc1)C(=O)Nc1ccc(N2CC3(CCCOC3)C2)cc1 [Example 55] | 0.177
22 | CC1(O)CCC2(CCN(c3ccc(NC(=O)C(=O)Nc4ccc(-c5cc6cc(F)c(-c7nnn[nH]7)cc6n5C5(C)CCC5)cc4)cc3)CC2)CC1 [Example 111] | 0.122

Test system: MeWo
Assay: CellTiter-Glo cell proliferation inhibition, MeWo
Type: cell-based, human
Settings: Homo sapiens, MeWo, 72 h, MeWo cells, CellTiter-Glo
Method: as §1
Using essentially the same experimental materials, MeWo cells (ATCC, catalog #HTB-65) were treated similarly: when thawing the cells, the cryovial was rapidly shaken in a 37 °C water bath to thaw the cells within 1 minute. The thawed cell suspension was mixed with MEM/EBSS culture medium containing 10% FBS (HyClone, catalog #SH30024.01), centrifuged at 1000 rpm for 5 minutes, and the supernatant was discarded. The cell pellet was resuspended in 5 mL of complete culture medium (MEM/EBSS medium containing 10% FBS), placed in a cell culture flask with 25 cm^2 of bottom area, and cultured in a cell culture incubator at 37 °C, 95% humidity, and 5% CO2. Cell passaging was performed when the cell confluence reached approximately 80%. During cell passaging, the old culture medium was discarded, the cells were washed once with DPBS, and 1 mL of trypsin was added to digest the cells. When the cells dispersed into single cells and detached from the bottom of the cell culture flask, 3 mL of new complete culture medium was added to stop the digestion. After thoroughly mixing the cell suspension, 1/5 of the cell suspension was retained, 5 mL of new complete culture medium was added, and after thorough mixing, the cells were placed in a cell culture flask for further culture. Cell plating was performed when the cell confluence again reached approximately 80%. During cell plating, following the cell passaging method, 1/5 of the cell suspension was retained for further culture, and the remaining 4/5 of the cell suspension was placed in a 15 mL centrifuge tube. Cell viability was determined using the trypan blue exclusion method to ensure that cell viability was above 90%. A cell suspension with a density of 2.22 × 10^4 cells/mL was prepared using MEM/EBSS culture medium containing 5% FBS. 90 µL of the cell suspension was added to a 96-well cell culture plate, resulting in a cell density of 2000 viable cells/well in the cell culture plate. A control group without cells and without compounds, containing only complete culture medium (i.e., culture medium control), and a control group without compounds but containing cells (i.e., cell control) were set up. The cell plate was cultured overnight in the cell culture incubator. First, a 10 mM stock solution of the compound (Example compound and positive control compound 11a-1) in DMSO was serially diluted with DMSO at a 3-fold dilution, down to the 9th concentration. A 10th concentration containing only DMSO (without the compound) was also prepared as a control. Then, the DMSO solutions containing different concentrations of the compound were diluted 100-fold with complete culture medium, resulting in a 1% DMSO concentration in each solution. Finally, 10 µL of each solution was added to the corresponding wells of the cell culture plate, resulting in a starting compound concentration of 10 µM, with a 3-fold dilution between adjacent concentrations, and a 0.1% DMSO concentration in the cell culture plate. The cell plates were then incubated in a cell culture incubator for 72 hours.
as §2, with “signal.” for “signal. A multi-mode microplate reader (PerkinEImer, Envision 2105 Multimode plate Read) was used to full-wavelength scan the luminescence value of each well.”

Row | Compound | IC50 [µM]
23 | CC(C)(O)C1CCN(c2ccc(NC(=O)C(=O)Nc3ccc(-c4cc5cc(F)c(-c6nnn[nH]6)cc5n4C4CCC4)cc3)cc2)CC1 [Example 33] | 0.117
24 | CC1(n2c(-c3ccc(NC(=O)C(=O)Nc4ccc(N5CCC6(CCOC6)CC5)cc4)cc3)cc3cc(F)c(-c4nnn[nH]4)cc32)CC1 [Example 70] | 0.213
25 | O=C(Nc1ccc(-c2cc3cc(F)c(-c4nnn[nH]4)cc3n2C2CCC2)cc1)C(=O)Nc1ccc(N2CCC3(CCOC3)CC2)cc1 [Example 67] | 0.038
26 | CC1(n2c(-c3ccc(NC(=O)C(=O)Nc4ccc(-c5cnn(C6CCOCC6)c5)cc4)cc3)cc3cc(F)c(-c4nnn[nH]4)cc32)CC1 [Example 7] | 0.111
27 | O=C(Nc1ccc(-c2ccsc2)cc1)C(=O)Nc1ccc(-c2sc3cc(F)c(-c4nnn[nH]4)cc3c2C2CCC2)cc1 [Example 133] | 0.686
28 | O=C(Nc1ccc(-c2cc3cc(F)c(-c4nnn[nH]4)cc3n2C2CCC2)cc1)C(=O)Nc1ccc(N2CC3CC(O)CC3C2)cc1 (stereo not shown) [Example 116] | 0.067
29 | O=C(Nc1ccc(-c2cc3cc(F)c(-c4nnn[nH]4)cc3n2C2CC2)cc1)C(=O)Nc1ccc(N2CCC3(CCOC3)CC2)cc1 [Example 69] | 0.093
30 | Cn1cc(-c2ccc(NC(=O)C(=O)Nc3ccc(-c4cc5cc(F)c(-c6nnc(C(F)(F)F)[nH]6)cc5n4C4CCC4)cc3)cc2)cn1 [Example 124] | 1.55
31 | O=C(Nc1ccc(-c2ccsc2)cc1)C(=O)Nc1ccc(-c2cc3cc(F)c(-c4nnn[nH]4)nc3n2C2CCC2)cc1 [Example 132] | 0.291
32 | Cn1cc(-c2ccc(NC(=O)C(=O)Nc3ccc(-c4cc5cc(F)c(-c6noc(=O)[nH]6)cc5n4C4CCC4)cc3)cc2)cn1 [Example 123] | 0.118
33 | O=C(Nc1ccc(-c2ccsc2)cc1)C(=O)Nc1ccc(-c2cc3ccc(-c4nnn[nH]4)cc3n2C2CCC2)cc1 [Example 122] | 0.409
34 | O=C(Nc1ccc(-c2ccsc2)cc1)C(=O)Nc1ccc(-c2oc3cc(F)c(-c4nnn[nH]4)cc3c2C2CCC2)cc1 [Example 130] | 0.162

Same assay, conditions: Homo sapiens; MeWo cells, 72 hours, CellTiter-Glo

Row | Compound | IC50 [µM]
35 | O=C(Nc1ccc(-c2oc3cc(F)c(-c4nnn[nH]4)cc3c2C2CCC2)cc1)C(=O)Nc1ccc(N2CCC3(CCOC3)CC2)cc1 [Example 125] | 0.764
36 | O=C(Nc1ccc(-c2ccsc2)cc1)C(=O)Nc1ccc(-c2cc3cc(F)c(-c4nnn[nH]4)c(F)c3n2C2CCC2)cc1 [Example 134] | 0.27
37 | O=C(Nc1ccc(-c2ccsc2)cc1)C(=O)Nc1ccc(-c2cc3ccc(-c4nnn[nH]4)nc3n2C2CCC2)cc1 [Example 129] | 0.176
